The results in this text go back to ChEMBL document CHEMBL6114971, “Design, synthesis and biological evaluation of benzo[b]thiophene analogues as novel ferroptosis inhibitor that inhibit fibrosarcoma cell proliferation” (Bioorg Med Chem, 2025).

Data set [1] has as its system HT-1080. Briefly: Cell cycle arrest in human HT-1080 cells assessed as accumulation of cells at S-phase at 0.5 uM measured after 24 hrs by propidium iodide staining based flow cytometry (reference value: 21.1%). Type of data set: functional. For orientation: Flow cytometry measures light scatter and fluorescence of single cells or particles in a stream.
Data set [2] has as its system HT-1080. Briefly: Cell cycle arrest in human HT-1080 cells assessed as accumulation of cells at G2/M-phase at 1 uM measured after 24 hrs by propidium iodide staining based flow cytometry (reference value: 27%). Type of data set: functional.
For another data set, the system named is 4T1. Briefly: Antiproliferative activity against mouse 4T1 cells measured after 72 hrs by MTT assay. Type of data set: functional, cell-based. As to conditions: 4T1, 72 h. In general terms: Tetrazolium assays rely on reduction of a dye to a coloured formazan, in cell work by metabolically active cells.
The subject of data set [3] is HT-1080. Briefly: Cell cycle arrest in human HT-1080 cells assessed as accumulation of cells at G1-phase at 1 uM measured after 24 hrs by propidium iodide staining based flow cytometry (reference value: 51.3%). Type of data set: functional.
A short description of data set [4]: Selectivity index, ratio of IC50 for human GES1 cells to IC50 for human HT-1080. The format is toxicity. The note with it: GES1 cells versus HT-1080 cells, read-out: Ratio IC50.
The test system of data set [5] is HT-1080. Briefly: Cell cycle arrest in human HT-1080 cells assessed as accumulation of cells at G2/M-phase at 2 uM measured after 24 hrs by propidium iodide staining based flow cytometry (reference value: 27%). The format is functional.
For data set [6], the system named is HT-1080. Briefly: Induction of ROS generation in human HT-1080 cells assessed as increase in intracellular ROS level measured after 24 hrs by DCFH-DA probe based flow cytometry. The format is functional, cell-based. The note with it: dose 0.5-2 µM.
Data set [7] deals with T1, Phospholipid hydroperoxide glutathione peroxidase GPX4 (Homo sapiens) (UniProt P36969).
T1 sequence (whole entry): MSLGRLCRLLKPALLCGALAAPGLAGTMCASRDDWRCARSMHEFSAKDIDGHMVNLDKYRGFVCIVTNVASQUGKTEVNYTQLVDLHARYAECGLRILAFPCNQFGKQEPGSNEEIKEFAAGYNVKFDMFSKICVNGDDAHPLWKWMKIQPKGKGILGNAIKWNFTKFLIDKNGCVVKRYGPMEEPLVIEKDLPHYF
Put plainly: Inhibition of GPX4 activity in human HT-1080 cells assessed as down regulation of GPX4 level measured after 24 hrs by Western blotting analysis. The note with it: dose 0.25-4 µM. The format is cell-based. (In general: A western blot detects proteins with antibodies after separation by electrophoresis.)

Data set [8] has as its system HT-1080. Briefly: Induction of ROS generation in human HT-1080 cells assessed as intracellular ROS level at 2 uM measured after 24 hrs by DCFH-DA probe based flow cytometry (reference value: 33%). The format is functional.
Data set [9] has as its system HT-1080. Put plainly: Induction of ROS generation in human HT-1080 cells assessed as intracellular ROS level at 2 uM measured after 24 hrs in presence of ferroptosis inhibitor Fer-1 by DCFH-DA probe based flow cytometry (reference value: 33%). The format is functional.
A further data set relates to MGC-803. Briefly: Antiproliferative activity against human MGC-803 cells measured after 72 hrs by MTT assay. The note with it: MGC-803, 72 h. Type of data set: functional, cell-based.
Data set [10] concerns HT-1080. Put plainly: Induction of ferroptosis in human HT-1080 cells assessed as reduction in GSH level measured after 24 hrs. Type of data set: functional, cell-based. The note with it: dose 0.5-4 µM.
For data set [11], the system named is HT-1080. Put plainly: Induction of ROS generation in human HT-1080 cells assessed as intracellular ROS level at 1 uM measured after 24 hrs by DCFH-DA probe based flow cytometry (reference value: 33%). The format is functional.
Data set [12] has as its system HT-1080. Put plainly: Cell cycle arrest in human HT-1080 cells assessed as accumulation of cells at S-phase at 1 uM measured after 24 hrs by propidium iodide staining based flow cytometry (reference value: 21.1%). The format is functional.
Data set [13] concerns HT-1080. Put plainly: Induction of ROS generation in human HT-1080 cells assessed as intracellular ROS level at 0.5 uM measured after 24 hrs by DCFH-DA probe based flow cytometry (reference value: 33%). The format is functional.
Data set [14] is described as follows: Cytotoxicity against HUVEC measured after 72 hrs by MTT assay. The format is toxicity, cell-based. The note with it: human.
Data set [15] has as its system HT-1080. Briefly: Cell cycle arrest in human HT-1080 cells assessed as accumulation of cells at S-phase at 2 uM measured after 24 hrs by propidium iodide staining based flow cytometry (reference value: 21.1%). Type of data set: functional.
Data set [16] has as its system HT-1080. Put plainly: Reduction in GPX4 mRNA level in human HT-1080 cells measured after 24 hrs by qRT-PCR analysis. The format is functional, cell-based. As to conditions: dose 0.5-4 µM.
The subject of the next data set is A549. Put plainly: Antiproliferative activity against human A549 cells measured after 72 hrs by MTT assay. The format is functional, cell-based. The note with it: A549, 72 h.
Data set [17] in a line: Cytotoxicity against human GES1 cells measured after 72 hrs by MTT assay. The format is toxicity, cell-based.
Data set [18] deals with HT-1080. Put plainly: Induction of ferroptosis in human HT-1080 cells assessed as increase in intracellular Fe2+ level measured after 24 hrs. The format is functional, cell-based. The note with it: dose 0.5-4 µM.
In data set [19] the test system is HT-1080. Briefly: Antiproliferative activity against human HT-1080 cells measured after 72 hrs in presence of ferroptosis inhibitor Fer-1 by MTT assay. As to conditions: HT-1080, 72 h. The format is functional, cell-based.
A short description of data set [20]: Selectivity index, ratio of IC50 for HUVEC to IC50 for human HT-1080. Type of data set: toxicity. As to conditions: HUVEC versus HT-1080 cells, read-out: Ratio IC50.
Data set [21] has as its target T1, Phospholipid hydroperoxide glutathione peroxidase GPX4 (Homo sapiens). Put plainly: Inhibition of GPX4 activity in human HT-1080 cells assessed as down regulation of GPX4 level at 2 uM measured after 24 hrs by Western blotting analysis. The format is cell-based.
In data set [22] the test system is HT-1080. Briefly: Cell cycle arrest in human HT-1080 cells assessed as accumulation of cells at G1-phase at 2 uM measured after 24 hrs by propidium iodide staining based flow cytometry (reference value: 51.3%). The format is functional.
The subject of data set [23] is HT-1080. Put plainly: Induction of ferroptosis in human HT-1080 cells assessed as increase in MDA level measured after 24 hrs. The note with it: dose 0.5-4 µM. Type of data set: functional, cell-based.
Data set [24] deals with HT-1080. Put plainly: Cell cycle arrest in human HT-1080 cells assessed as accumulation of cells at G2/M-phase at 0.5 uM measured after 24 hrs by propidium iodide staining based flow cytometry (reference value: 27%). Type of data set: functional.
Data set [25] deals with HT-1080. Briefly: Cell cycle arrest in human HT-1080 cells assessed as accumulation of cells at G1-phase at 0.5 uM measured after 24 hrs by propidium iodide staining based flow cytometry (reference value: 51.3%). The format is functional.
Data set [26] in a line: Selectivity ratio of IC50 for antiproliferative activity against human HT-1080 cells in presence of ferroptosis inhibitor Fer-1 to IC50 for antiproliferative activity against human HT-1080 cells. The format is functional.
Data set [27] deals with HT-1080. Briefly: Antiproliferative activity against human HT-1080 cells measured after 72 hrs by MTT assay. The format is functional, cell-based. The note with it: HT-1080, 72 h.
For data set [28], the system named is HT-1080. Put plainly: Reduction in GPX4 mRNA level in human HT-1080 cells at 2 uM measured after 24 hrs by qRT-PCR analysis. Type of data set: functional, cell-based.

Activity calls are given as the source filed them. The calls are words filed in the database; no cut-off is given here. Where only a bound is given, the exact number is not on record here.

The IC50 is the concentration that gives 50% inhibition. As for `COc1cc(N(Cc2csc3ccccc23)C(=O)CCl)cc(OC)c1OC`, the Activity with HT-1080 [1] is 28.5%; with HT-1080 [2] it was 23.8%; in the data set on HT-1080 [3], 38.8%; in the data set with HT-1080 [5] it was 23.9%; in the data set with HT-1080 [6], “Dose-dependent-effect”; with HT-1080 [8] it was 88.5%. Moreover, the Activity is 31.2% in the data set with HT-1080 [9]; “Dose-dependent-effect” in the data set with HT-1080 [10]; 64.2% with HT-1080 [11]; 37% in the data set with HT-1080 [12]; 33% with HT-1080 [13]; 40.7% in the data set with HT-1080 [15]. Further, the Activity result in the data set with HT-1080 [16] is “Dose-dependent-effect”; in the data set with HT-1080 [18], “Dose-dependent-effect”; in the data set with HT-1080 [22] it was 35.5%; with HT-1080 [23] it was “Dose-dependent-effect”; in the data set with HT-1080 [24], 23.1%; in the data set with HT-1080 [25], 48%. For the same compound, the IC50 in the data set with 4T1 worked out at 16.1 µM; in the data set with MGC-803, 4.48 µM; in the data set with A549 it was 17.2 µM; with HT-1080 [19], 3.03 µM; with HT-1080 [27], 0.94 µM. In addition, the selectivity ratio in data set [4] stood at 109; in [20], 27.7. For the same compound, the figures for the inhibition result in [7] and in data set [21] were “Dose-dependent-effect” and “Active; Significant Down Regulation Observed”, respectively. Also, the values for the IC50 at 72 h in [14] and in data set [17] were 26.1 µM and 103 µM, respectively. Further, the “Ratio IC50” value in [26] stood at 3.21.
Turning to `COC(=O)c1ccc([C@H]2c3[nH]c4ccccc4c3C[C@H](C(=O)OC)N2C(=O)CCl)cc1`, the IC50 is 18.4 µM in the data set with 4T1, 12.2 µM in the data set on MGC-803, greater than 20 µM in the data set with A549 and 2.28 µM in the data set with HT-1080 [19]. For the same compound, the values for the selectivity ratio in data set [4] and in data set [20] were 51.5 and 26.6, respectively. Moreover, the Activity in the data set on HT-1080 [8] amounted to 87.6%. Besides, in the data set with HT-1080 [28], the outcome was Active. In addition, the half-inhibitory concentration (IC50) at 72 h in data set [14] turned out to be 32.1 µM; in [17], 62.3 µM. Further, in [21], the inhibition result was “Active”. In addition, in data set [26], the “Ratio IC50” value stood at 1.88.
